According to paper PMC7316778 (Nature Communications, 2020):
Where two headings read alike, the source gives them in different places.

Columns and labels:
Assay in all cases: SelectScreen kinase assay
BMPR1B (ALK6) = BMPR1B (ALK6) (Homo sapiens, UniProt O00238)
Procedure: (§1) Selectivity profiling assays were performed by the Invitrogen SelectScreen™ Services. […] The concentration of ATP was selected to be equal to the KM, unless indicated otherwise.

CSNK1D (CK1 delta) = CSNK1D (CK1 delta) (Homo sapiens, UniProt P48730); settings: 1 h, 1 μM WEL028, 1 h preincubation
Procedure: as §1

GRK1 = target: T1, GRK1 (Homo sapiens, UniProt Q15835)
T1 sequence (Q15835 1-563): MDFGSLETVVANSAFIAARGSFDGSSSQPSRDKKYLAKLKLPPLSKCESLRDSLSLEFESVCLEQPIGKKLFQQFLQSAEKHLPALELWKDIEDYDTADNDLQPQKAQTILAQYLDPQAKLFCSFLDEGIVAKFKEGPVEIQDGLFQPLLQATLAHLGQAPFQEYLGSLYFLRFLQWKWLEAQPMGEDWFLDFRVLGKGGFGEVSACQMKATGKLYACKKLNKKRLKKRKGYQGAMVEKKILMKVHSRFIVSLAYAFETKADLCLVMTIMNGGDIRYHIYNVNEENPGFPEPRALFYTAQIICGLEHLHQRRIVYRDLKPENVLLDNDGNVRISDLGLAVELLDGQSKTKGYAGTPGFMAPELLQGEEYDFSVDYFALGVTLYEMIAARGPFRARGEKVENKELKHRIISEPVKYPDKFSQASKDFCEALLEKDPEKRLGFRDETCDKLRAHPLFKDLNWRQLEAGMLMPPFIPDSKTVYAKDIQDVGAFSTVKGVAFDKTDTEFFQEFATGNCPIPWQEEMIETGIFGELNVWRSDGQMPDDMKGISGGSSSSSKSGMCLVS
Procedure: as §1

LIMK1 = LIMK1 (Homo sapiens, UniProt P53667)
Procedure: as §1

MAPKAPK3 = MAPKAPK3 (Homo sapiens, UniProt Q16644)
Procedure: as §1

TGFBR2 = TGFBR2 (Homo sapiens, UniProt P37173)
Procedure: as §1

TTK = target: T2, TTK (Homo sapiens, UniProt P33981)
T2 sequence (P33981 1-857): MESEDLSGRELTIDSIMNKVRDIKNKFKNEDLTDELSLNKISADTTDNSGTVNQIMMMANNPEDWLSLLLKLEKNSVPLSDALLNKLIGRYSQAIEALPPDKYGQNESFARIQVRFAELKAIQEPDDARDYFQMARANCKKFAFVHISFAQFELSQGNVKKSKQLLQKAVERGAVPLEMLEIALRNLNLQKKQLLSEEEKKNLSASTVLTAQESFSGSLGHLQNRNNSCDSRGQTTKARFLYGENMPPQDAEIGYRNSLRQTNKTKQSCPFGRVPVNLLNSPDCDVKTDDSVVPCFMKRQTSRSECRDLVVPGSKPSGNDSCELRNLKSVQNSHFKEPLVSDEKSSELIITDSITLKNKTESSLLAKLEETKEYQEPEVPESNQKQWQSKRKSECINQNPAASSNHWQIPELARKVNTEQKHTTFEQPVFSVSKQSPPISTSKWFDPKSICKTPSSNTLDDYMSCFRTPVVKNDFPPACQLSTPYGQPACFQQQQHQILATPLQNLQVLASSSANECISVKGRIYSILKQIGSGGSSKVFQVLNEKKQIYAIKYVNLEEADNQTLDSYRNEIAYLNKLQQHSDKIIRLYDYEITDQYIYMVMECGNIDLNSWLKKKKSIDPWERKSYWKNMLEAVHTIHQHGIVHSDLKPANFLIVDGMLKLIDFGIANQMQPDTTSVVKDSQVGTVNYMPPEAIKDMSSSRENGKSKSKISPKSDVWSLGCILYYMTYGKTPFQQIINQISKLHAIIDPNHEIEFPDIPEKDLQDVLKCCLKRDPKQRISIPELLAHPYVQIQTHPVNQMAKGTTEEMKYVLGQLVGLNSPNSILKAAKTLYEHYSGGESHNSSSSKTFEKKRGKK
Procedure: as §1

TYRO3 (RSE) = target: T3, TYRO3 (RSE) (Homo sapiens, UniProt Q06418)
T3 sequence (Q06418 41-890): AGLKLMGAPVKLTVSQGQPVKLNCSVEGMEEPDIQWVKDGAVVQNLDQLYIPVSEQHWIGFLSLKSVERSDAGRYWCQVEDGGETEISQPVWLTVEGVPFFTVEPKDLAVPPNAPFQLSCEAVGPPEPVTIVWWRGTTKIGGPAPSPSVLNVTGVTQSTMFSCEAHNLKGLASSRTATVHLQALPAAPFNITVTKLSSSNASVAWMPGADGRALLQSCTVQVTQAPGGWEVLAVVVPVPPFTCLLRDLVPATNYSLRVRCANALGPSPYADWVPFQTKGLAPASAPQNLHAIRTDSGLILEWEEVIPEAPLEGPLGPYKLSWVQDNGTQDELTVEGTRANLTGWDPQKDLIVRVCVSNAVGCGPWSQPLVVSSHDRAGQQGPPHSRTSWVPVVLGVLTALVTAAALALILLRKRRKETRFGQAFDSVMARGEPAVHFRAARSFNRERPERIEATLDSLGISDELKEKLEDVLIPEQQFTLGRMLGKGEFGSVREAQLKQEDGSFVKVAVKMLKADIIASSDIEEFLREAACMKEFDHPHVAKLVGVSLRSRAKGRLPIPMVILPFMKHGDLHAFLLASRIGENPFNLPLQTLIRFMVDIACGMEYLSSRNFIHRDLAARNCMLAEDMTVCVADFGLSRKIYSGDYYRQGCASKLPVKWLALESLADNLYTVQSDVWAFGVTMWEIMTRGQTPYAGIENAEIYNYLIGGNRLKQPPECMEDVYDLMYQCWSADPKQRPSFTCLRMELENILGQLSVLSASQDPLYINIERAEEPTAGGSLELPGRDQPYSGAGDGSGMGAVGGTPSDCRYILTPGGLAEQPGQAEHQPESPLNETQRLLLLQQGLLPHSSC
Procedure: as §1

[1] = 1 h, 1 μM WEL028, 1 h preincubation
[2] = 1 µM, LanthaScreen Binding, listed as WEL028, 1 µM
[3] = read-out: Inhibition at 1 µM (%), 1 µM, LanthaScreen Binding

Sequence of LIMK1 (P53667 whole entry): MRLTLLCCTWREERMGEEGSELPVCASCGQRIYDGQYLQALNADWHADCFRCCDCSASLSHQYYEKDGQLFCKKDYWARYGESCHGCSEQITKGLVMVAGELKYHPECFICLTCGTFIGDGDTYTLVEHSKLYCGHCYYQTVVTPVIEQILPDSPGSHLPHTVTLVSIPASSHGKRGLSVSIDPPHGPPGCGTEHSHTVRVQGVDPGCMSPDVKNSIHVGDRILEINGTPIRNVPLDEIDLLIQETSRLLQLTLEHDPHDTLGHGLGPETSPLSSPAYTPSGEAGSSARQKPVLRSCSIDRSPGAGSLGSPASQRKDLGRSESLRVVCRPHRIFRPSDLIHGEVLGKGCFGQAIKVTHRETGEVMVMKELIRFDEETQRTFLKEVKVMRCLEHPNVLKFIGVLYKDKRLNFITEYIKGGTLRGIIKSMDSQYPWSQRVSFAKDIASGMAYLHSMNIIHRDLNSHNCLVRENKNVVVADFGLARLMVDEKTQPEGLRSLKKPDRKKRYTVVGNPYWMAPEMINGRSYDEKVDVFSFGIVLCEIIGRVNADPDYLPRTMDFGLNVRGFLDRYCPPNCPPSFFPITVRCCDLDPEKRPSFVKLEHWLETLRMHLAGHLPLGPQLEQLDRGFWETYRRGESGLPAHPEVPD
Sequence of MAPKAPK3 (Q16644 whole entry): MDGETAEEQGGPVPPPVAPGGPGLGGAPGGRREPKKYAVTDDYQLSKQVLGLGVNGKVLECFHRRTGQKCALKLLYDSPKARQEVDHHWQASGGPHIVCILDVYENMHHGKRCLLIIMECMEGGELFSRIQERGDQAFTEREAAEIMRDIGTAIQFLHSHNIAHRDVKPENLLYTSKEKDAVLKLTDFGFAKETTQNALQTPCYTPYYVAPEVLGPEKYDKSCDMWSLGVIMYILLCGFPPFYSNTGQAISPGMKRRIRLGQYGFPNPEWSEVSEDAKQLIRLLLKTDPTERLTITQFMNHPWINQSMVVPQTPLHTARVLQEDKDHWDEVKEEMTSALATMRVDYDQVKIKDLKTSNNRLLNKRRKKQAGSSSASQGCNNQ
Sequence of TGFBR2 (P37173 23-567): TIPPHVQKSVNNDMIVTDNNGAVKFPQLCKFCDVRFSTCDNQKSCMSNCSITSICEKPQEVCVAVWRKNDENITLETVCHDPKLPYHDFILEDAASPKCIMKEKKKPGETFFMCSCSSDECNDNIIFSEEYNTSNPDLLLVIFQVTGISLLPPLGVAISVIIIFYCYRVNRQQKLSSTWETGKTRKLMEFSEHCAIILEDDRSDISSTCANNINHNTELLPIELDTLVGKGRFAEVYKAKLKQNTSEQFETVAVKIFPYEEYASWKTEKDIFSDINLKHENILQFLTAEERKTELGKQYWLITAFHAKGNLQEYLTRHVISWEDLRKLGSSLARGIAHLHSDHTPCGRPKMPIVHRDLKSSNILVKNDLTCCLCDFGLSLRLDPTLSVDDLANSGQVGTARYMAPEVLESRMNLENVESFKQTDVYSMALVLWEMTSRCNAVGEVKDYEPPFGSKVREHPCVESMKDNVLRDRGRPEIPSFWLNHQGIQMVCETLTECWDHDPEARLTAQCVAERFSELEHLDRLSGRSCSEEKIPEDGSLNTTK
Sequence of BMPR1B (ALK6) (O00238 14-502): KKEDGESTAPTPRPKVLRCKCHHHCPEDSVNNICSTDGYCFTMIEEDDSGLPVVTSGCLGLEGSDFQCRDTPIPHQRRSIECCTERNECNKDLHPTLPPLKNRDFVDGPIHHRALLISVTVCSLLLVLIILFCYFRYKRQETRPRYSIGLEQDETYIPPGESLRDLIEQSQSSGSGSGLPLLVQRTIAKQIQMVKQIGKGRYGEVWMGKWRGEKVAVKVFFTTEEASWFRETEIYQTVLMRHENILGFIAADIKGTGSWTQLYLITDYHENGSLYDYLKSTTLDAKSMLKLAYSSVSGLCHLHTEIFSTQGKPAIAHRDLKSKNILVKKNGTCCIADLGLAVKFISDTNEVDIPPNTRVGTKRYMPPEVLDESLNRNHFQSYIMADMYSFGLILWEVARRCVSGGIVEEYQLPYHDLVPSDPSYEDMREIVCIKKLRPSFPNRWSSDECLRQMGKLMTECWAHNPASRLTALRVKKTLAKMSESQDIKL
Sequence of CSNK1D (CK1 delta) (P48730 whole entry): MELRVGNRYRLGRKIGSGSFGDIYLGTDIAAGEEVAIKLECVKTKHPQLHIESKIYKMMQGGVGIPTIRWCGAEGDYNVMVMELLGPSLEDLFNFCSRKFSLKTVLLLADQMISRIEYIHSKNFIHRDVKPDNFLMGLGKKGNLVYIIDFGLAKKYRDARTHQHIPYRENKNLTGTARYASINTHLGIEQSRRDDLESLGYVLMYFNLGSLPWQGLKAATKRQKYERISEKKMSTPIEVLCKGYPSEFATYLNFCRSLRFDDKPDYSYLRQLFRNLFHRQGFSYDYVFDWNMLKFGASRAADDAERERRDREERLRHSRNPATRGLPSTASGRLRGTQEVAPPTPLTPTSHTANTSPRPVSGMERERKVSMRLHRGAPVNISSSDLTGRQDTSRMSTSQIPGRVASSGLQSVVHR

Q: Which inhibition at 1 µM (BMPR1B (ALK6); 1 h) does the source give for `C#CCOc1ccc(Nc2ncc(Cl)c(Nc3ccccc3NC(=O)C=C)n2)c(OC)c1` [Compound 6] here?
A: 24%

Q: And the inhibition at 1 µM (BMPR1B (ALK6); read-out: Inhibition at 1 µM (%))?
A: 24%

Q: What about the inhibition at 1 µM (CSNK1D (CK1 delta)) of the same compound?
A: 18%

Q: And the inhibition at 1 µM (GRK1; [1])?
A: 8%

Q: And the “Inhibition at 1 µM (%)” value (GRK1; GRK1, 1 µM, LanthaScreen Binding, listed as WEL028, 1 µM)?
A: 7%

Q: And the inhibition at 1 µM (GRK1; read-out: Inhibition at 1 µM (%), GRK1, 1 µM, LanthaScreen Binding)?
A: 9%

Q: And the inhibition at 1 µM (LIMK1; [1])?
A: 14%

Q: What about the “Inhibition at 1 µM (%)” value (LIMK1; LIMK1, 1 µM, LanthaScreen Binding, listed as WEL028, 1 µM) of the same compound?
A: 12%

Q: What about the inhibition at 1 µM (LIMK1; read-out: Inhibition at 1 µM (%), LIMK1, 1 µM, LanthaScreen Binding) of the same compound?
A: 16%

Q: What about the inhibition at 1 µM (MAPKAPK3; [1]) of the same compound?
A: 9%

Q: What about the “Inhibition at 1 µM (%)” value (MAPKAPK3; MAPKAPK3, 1 µM, ZLYTE, ATP Km app, listed as WEL028, 1 µM) of the same compound?
A: 10%

Q: And the inhibition at 1 µM (MAPKAPK3; read-out: Inhibition at 1 µM (%), MAPKAPK3, 1 µM, ZLYTE, ATP Km app)?
A: 9%

Q: And the “Inhibition at 1 µM (%)” value (TGFBR2; [2])?
A: 11%

Q: And the inhibition at 1 µM (TGFBR2; [1])?
A: 14%

Q: And the inhibition at 1 µM (TGFBR2; [3])?
A: 17%

Q: What about the IC50 (TTK) of the same compound?
A: 631 nM

Q: What about the “Inhibition at 1 µM (%)” value (TTK; [2]) of the same compound?
A: 76%

Q: What about the inhibition at 1 µM (TTK; [1]) of the same compound?
A: 77%

Q: And the Apparent fold selectivity (TTK; IC50 on that kinase divided by IC50 on FES^S700C)?
A: 152 fold

Q: And the inhibition at 1 µM (TTK; [3])?
A: 77%

Q: What about the “Inhibition at 1 µM (%)” value (TYRO3 (RSE); 1 µM, ZLYTE, ATP Km app, listed as WEL028, 1 µM) of the same compound?
A: 6%

Q: And the inhibition at 1 µM (TYRO3 (RSE); [1])?
A: 5%

Q: And the inhibition at 1 µM (TYRO3 (RSE); read-out: Inhibition at 1 µM (%), 1 µM, ZLYTE, ATP Km app)?
A: 4%
